# According to article PMC8465942, “Cyano- and Ketone-Containing Selenoesters as Multi-Target Compounds against Resistant Cancers” (Cancers, 2021):
# Values joined by “and” are separate entries in the source; they are usually repeats but may differ in a detail not shown here. Identical values can stand only once. “Also recorded” adds a separate entry of the source. Like-named read-outs stand apart in the source and are kept apart here.
# What was measured:
# [1] = target: ABCB1 (P-glycoprotein) in Colo 320 colonic adenocarcinoma cells (Homo sapiens, UniProt P08183); assay: ABCB1 inhibition, rhodamine 123 accumulation by flow cytometry; conditions: for FAR (fluorescence activity ratio): rhodamine 123, FAR above 2 considered effective
# ABCB1 (P-glycoprotein) in Colo 320 colonic adenocarcinoma cells, sequence (P08183 whole entry): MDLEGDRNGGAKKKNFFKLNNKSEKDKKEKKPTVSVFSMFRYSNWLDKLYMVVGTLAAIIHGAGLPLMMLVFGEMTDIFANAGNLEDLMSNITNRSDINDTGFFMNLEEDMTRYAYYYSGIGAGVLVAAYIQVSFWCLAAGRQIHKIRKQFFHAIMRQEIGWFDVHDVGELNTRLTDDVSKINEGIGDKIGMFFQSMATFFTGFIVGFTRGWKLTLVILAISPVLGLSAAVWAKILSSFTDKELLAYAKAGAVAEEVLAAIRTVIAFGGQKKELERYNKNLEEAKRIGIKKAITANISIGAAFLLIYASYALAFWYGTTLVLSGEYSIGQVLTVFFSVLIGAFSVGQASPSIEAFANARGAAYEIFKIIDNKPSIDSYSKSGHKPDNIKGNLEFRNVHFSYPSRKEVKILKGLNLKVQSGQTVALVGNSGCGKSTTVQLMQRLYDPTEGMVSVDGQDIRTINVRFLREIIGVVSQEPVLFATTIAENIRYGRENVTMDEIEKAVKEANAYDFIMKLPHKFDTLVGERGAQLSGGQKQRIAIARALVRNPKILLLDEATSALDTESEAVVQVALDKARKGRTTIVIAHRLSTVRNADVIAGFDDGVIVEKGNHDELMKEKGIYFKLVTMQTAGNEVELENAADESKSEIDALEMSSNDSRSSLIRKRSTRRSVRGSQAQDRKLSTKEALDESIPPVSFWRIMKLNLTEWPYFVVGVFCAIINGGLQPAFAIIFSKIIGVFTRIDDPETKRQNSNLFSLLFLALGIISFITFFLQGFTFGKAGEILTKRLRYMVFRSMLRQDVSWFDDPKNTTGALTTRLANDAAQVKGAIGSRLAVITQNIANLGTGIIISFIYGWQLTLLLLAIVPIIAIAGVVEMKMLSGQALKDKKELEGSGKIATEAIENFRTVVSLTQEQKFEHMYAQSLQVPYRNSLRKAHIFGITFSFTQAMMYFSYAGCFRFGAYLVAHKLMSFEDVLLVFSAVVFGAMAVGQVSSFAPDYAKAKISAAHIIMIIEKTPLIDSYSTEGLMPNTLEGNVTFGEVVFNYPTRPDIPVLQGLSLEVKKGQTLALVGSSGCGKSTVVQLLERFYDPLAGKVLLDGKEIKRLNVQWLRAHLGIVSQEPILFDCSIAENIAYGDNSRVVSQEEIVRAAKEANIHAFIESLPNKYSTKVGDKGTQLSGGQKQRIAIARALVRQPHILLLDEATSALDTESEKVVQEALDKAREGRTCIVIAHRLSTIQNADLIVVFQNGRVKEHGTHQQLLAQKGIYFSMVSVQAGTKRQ
# Method: The inhibition of the ABCB1 multidrug efflux pump ABCB1 by the tested compounds was evaluated using flow cytometry, measuring the retention of rhodamine 123 by ABCB1 (P-glycoprotein) in Colo 320 colonic adenocarcinoma cells. Briefly, the cell number of colonic adenocarcinoma cells were adjusted to 2 × 10^6 cells/mL, re-suspended in serum-free RPMI-1640 medium in the case of colonic adenocarcinoma cells, and distributed in 0.5 mL aliquots into Eppendorf centrifuge tubes. The tested compounds were added at different concentrations (0.2 and 2 µM; from 1 and 10 mM stock solutions, respectively), and the samples were incubated for 10 min at room temperature. Tariquidar was applied as the positive control (0.2 µM final concentration), and DMSO was used as the solvent control (at 2 v/v%). Next, 10 µL (5.2 µM final concentration) of the fluorochrome rhodamine 123 (Sigma, St. Louis, MO, USA) was added to the samples and the cells were incubated for 20 min at 37 °C. After the incubation period, the cells were washed twice and re-suspended in 0.5 mL PBS for analysis. The fluorescence of the gated cell population was measured with a Partec CyFlow® flow cytometer (Partec, Münster, Germany). The percentage of the mean fluorescence intensity was calculated for the treated MDR cells as compared with the untreated cells. The results were obtained from a representative flow cytometry experiment in which at least 20,000 individual cells of the overall population were evaluated for the rhodamine 123 retained inside the cells. The fluorescence activity ratio (FAR) was calculated based on the following equation, which relates the measured fluorescence values: FAR=Colo320treated / Colo320control/Colo205treated / Colo205control
# The parameters evaluated from flow cytometry experiments were: Forward Scatter Count (FSC, provides information about cell size); Side Scatter Count (SSC, proportional to cell granularity or internal complexity); FL-1 (Mean fluorescence of the cells), and Fluorescence Activity Ratio (FAR), which was calculated by the equation given above.
# [2] = tested on: MDR Colo 320 adenocarcinoma cells; assay: Apoptosis induction (Annexin V-FITC / propidium iodide); assay type: cell-based, human; conditions: 2 µM; for Cell Death (%) Treated Sample-Untreated Sample / Early Apoptosis (%) Treated Sample-Untreated Sample / Late Apoptosis (%) Treated Sample-Untreated Sample: 3 h induction; for Apoptosis Quotient (%): total apoptotic events relative to reference M627 (20 µM)
# Method: The assay was carried out using an Annexin V-FITC Apoptosis Detection Kit Cat. No. PF 032 from Calbiochem (EMD Biosciences. Inc. La Jolla. CA), according to the manufacturer's instructions. […] The cell suspension was distributed into 1 mL aliquots (1 × 10^6 cells) into a 24-well microplate and incubated overnight at 37 °C, with 5% CO2. On the following day, the medium was removed and a fresh medium was added to the cells. The cells were incubated in the presence of Se-compounds for 3 h at 37 °C. […] After a 3 h induction period, the culture medium was removed, the cells were washed with PBS, and a fresh medium was added to the cells. The 24-well plates were incubated overnight at 37 °C, with 5% CO2. After the incubation, the supernatant was collected in a microfuge tube and 200 μL of 0.25 trypsin (Trypsin-Versene) was added to the wells until the cells detached from the surfaces of the wells. The cells were centrifuged at 2000× g for 2 min at room temperature, the supernatant was removed, and the cells were re-suspended in fresh serum-free medium. After this procedure, apoptosis assay was carried out according to the rapid protocol of the kit using Annexin V-FITC and propidium iodide staining. […] The data were analysed by FlowJo^TM software (BD Biosciences, San Jose, NJ, USA).
# [3] = target: T1, recombinant human P-gp membranes (Homo sapiens, UniProt P08183); assay: P-gp ATPase activity assay (Pgp-Glo); assay type: biochemical; conditions: 25 µM; relative to basal activity
# T1 construct: purchased Promega
# T1 sequence (P08183 whole entry): as above
# Method: P-glycoprotein ATPase activity was determined using the Pgp-Glo^TM Assay System (Promega, WI, USA). The assay was performed according to the manufacturer’s instructions. […] DMSO at 2% was applied as a solvent control. […] The reaction was stopped after adding 50 µL of ATP Detection Reagent. Then, the samples and controls were incubated at room temperature for 20 min. The emitted luciferase-generated luminescent signal was measured in a CLARIOstar Plus plate reader (BMG Labtech, UK) at 580 nm. The relative ATPase activity was calculated based on the ratio between the luminescence measured of the P-gp ATPase activity of each compound and the basal P-gp ATPase activity according to the following equation: Relative ATPase activity=Lumtreated−Lumuntreated/LumNa3VO4 − Lumuntreated
# The effect of the tested compounds was evaluated according to the instructions of the manufacturer (Table 2).
# B16 (skin melanoma) = assay: Cytotoxicity on B16 cells; assay type: cell-based, murine; conditions: ratio IC50 non-tumour cells / IC50 cancer cells
# HaCaT cell line = assay: Toxicity on HaCaT cells (IC10 used as dose); assay type: cell-based; conditions: Homo sapiens
# Method: The activity of selenoesters was tested on several cancer cell lines, including HepG2 (hepatocellular carcinoma, CCL-23TM, ATCC); HeLa (cervical adenocarcinoma, CCL-2TM, ATCC); B16 (skin melanoma, CCL-6322TM, ATCC); and a non-cancerous cell line, HDF (human dermal fibroblasts, Sigma-Aldrich). HepG2, HeLa, B16, and HDF cell lines were cultivated in EMEM medium supplemented with 10% FBS, 2 mM L-glutamine, and 1% penicillin-streptomycin mixture. The HaCaT cell line was cultivated in DMEM medium supplemented with 10% FBS and 1% penicillin-streptomycin mixture. All of the cells were cultivated in a CO2 incubator (5% CO2, 37 °C). Twice per week, the cell lines were passaged according to a standardized protocol with a trypsin-EDTA solution. […]
# Wound healing activity of selenoesters was evaluated as the ability of the cells to migrate and close the gap created on the monolayer of human keratinocytes (HaCaT cell line). The tested substances were applied in the highest possible non-toxic concentration (IC10, concentration inhibiting 10% of the population). In general, ketone-selenoesters were more toxic (except K4 and K1) than cyano-selenoesters (except N4); therefore, they were applied at lower doses (0.17–0.30 µM) when compared to cyanoselenoesters (0.36–0.64 µM). Compounds K1, K4, and N4 were applied at a concentration of 0.30, 0.46, and 0.20 µM, respectively. As could be seen in Table 8, all ketone-selenoesters stimulated wound healing more effectively in comparison to both untreated control (p < 0.0000005) and allantoin (p < 0.00005). […] Only samples N1, N2, N4, and N7 closed effectively the damaged wound in 24 h, with the gap closure around 70%.
# [4] = tested on: HepG2 (hepatocellular carcinoma); assay: Cytotoxicity on HepG2 cells; assay type: cell-based, human; conditions: ratio IC50 non-tumour cells / IC50 cancer cells
# [5] = concentration inhibiting 10% of the population, highest non-toxic concentration, read-out: Dose IC10
smiles,measurement,setting,value
"CC(=O)C[Se]C(=O)c1cccs1 [K1, Se-(2-Oxopropyl) Thiophene-2-carboselenoate]",FSC (Forward Scatter Count),[1]; 0.2 µM,2144
same,SSC (Side Scatter Count),[1]; 0.2 µM,989
same,FAR (fluorescence activity ratio),[1]; 0.2 µM,1.37
same,FSC (Forward Scatter Count),[1]; 2 µM,1866
same,SSC (Side Scatter Count),[1]; 2 µM,1067
same,FAR (fluorescence activity ratio),[1]; 2 µM,45.73
same,"Total Apoptotic Events (Early + Late, %)",[2],32.6%
same,Cell Death (%) Treated Sample-Untreated Sample,[2],2.15%
same,Early Apoptosis (%) Treated Sample-Untreated Sample,[2],3.7%
same,Late Apoptosis (%) Treated Sample-Untreated Sample,[2],28.9%
same,Apoptosis Quotient (%),[2],66.0%
same,Effect on P-gp ATPase activity,[3],inhibited the ATPase activity; also recorded: inhibitors of P-gp ATPase activity
same,SI MRC-5/B16,B16 (skin melanoma),2.6
same,IC10,HaCaT cell line; [5],0.3 µM
"CC(=O)C[Se]C(=O)c1ccccc1F [K2, Se-(2-Oxopropyl) 2-Fluorobenzoselenoate]",FSC (Forward Scatter Count),[1]; 0.2 µM,1916
same,SSC (Side Scatter Count),[1]; 0.2 µM,1061
same,FAR (fluorescence activity ratio),[1]; 0.2 µM,1.41
same,FSC (Forward Scatter Count),[1]; 2 µM,1945
same,SSC (Side Scatter Count),[1]; 2 µM,1156
same,FAR (fluorescence activity ratio),[1]; 2 µM,37.35
same,"Total Apoptotic Events (Early + Late, %)",[2],34.2%
same,Cell Death (%) Treated Sample-Untreated Sample,[2],0.95%
same,Early Apoptosis (%) Treated Sample-Untreated Sample,[2],0.3%
same,Late Apoptosis (%) Treated Sample-Untreated Sample,[2],33.9%
same,Apoptosis Quotient (%),[2],69.2%
same,SI MRC-5/HepG2,[4],1.1
same,SI MRC-5/B16,B16 (skin melanoma),2.1
same,IC10,HaCaT cell line; [5],0.2 µM
"CC(=O)C[Se]C(=O)c1ccc(Br)cc1 [K3, Se-(2-Oxopropyl) 4-Bromobenzoselenoate]",FSC (Forward Scatter Count),[1]; 0.2 µM,1706
same,SSC (Side Scatter Count),[1]; 0.2 µM,982
same,FAR (fluorescence activity ratio),[1]; 0.2 µM,3.99
same,FSC (Forward Scatter Count),[1]; 2 µM,2040
same,SSC (Side Scatter Count),[1]; 2 µM,1031
same,FAR (fluorescence activity ratio),[1]; 2 µM,39.17
same,"Total Apoptotic Events (Early + Late, %)",[2],44.2%
same,Cell Death (%) Treated Sample-Untreated Sample,[2],0.00%
same,Early Apoptosis (%) Treated Sample-Untreated Sample,[2],18.6%
same,Late Apoptosis (%) Treated Sample-Untreated Sample,[2],25.6%
same,Apoptosis Quotient (%),[2],89.5%
same,Effect on P-gp ATPase activity,[3],stimulated the P-gp ATPase with a comparable intensity to the reference verapamil
same,SI MRC-5/B16,B16 (skin melanoma),1.3
same,IC10,HaCaT cell line; read-out: Dose IC10 (µM),0.24 µM
"CC(=O)C[Se]C(=O)c1ccccc1C(F)(F)F [K4, Se-(2-Oxopropyl) 2-(Trifluoromethyl)benzoselenoate]",FSC (Forward Scatter Count),[1]; 0.2 µM,1808
same,SSC (Side Scatter Count),[1]; 0.2 µM,861
same,FAR (fluorescence activity ratio),[1]; 0.2 µM,1.76
same,FSC (Forward Scatter Count),[1]; 2 µM,1830
same,SSC (Side Scatter Count),[1]; 2 µM,1008
same,FAR (fluorescence activity ratio),[1]; 2 µM,4.99
same,"Total Apoptotic Events (Early + Late, %)",[2],19.5%
same,Cell Death (%) Treated Sample-Untreated Sample,[2],5.95%
same,Early Apoptosis (%) Treated Sample-Untreated Sample,[2],3.4%
same,Late Apoptosis (%) Treated Sample-Untreated Sample,[2],16.1%
same,Apoptosis Quotient (%),[2],39.5%
same,SI MRC-5/B16,B16 (skin melanoma),1.4
same,IC10,HaCaT cell line; read-out: Dose IC10 (µM),0.46 µM
"CC(=O)C[Se]C(=O)c1cccc(C(F)(F)F)c1 [K5, Se-(2-Oxopropyl) 3-(Trifluoromethyl)benzoselenoate]",FSC (Forward Scatter Count),[1]; 0.2 µM,1982
same,SSC (Side Scatter Count),[1]; 0.2 µM,1096
same,FAR (fluorescence activity ratio),[1]; 0.2 µM,1.84
same,FSC (Forward Scatter Count),[1]; 2 µM,1949
same,SSC (Side Scatter Count),[1]; 2 µM,1053
same,FAR (fluorescence activity ratio),[1]; 2 µM,32.61 and 32.62
same,"Total Apoptotic Events (Early + Late, %)",[2],32.7%
same,Cell Death (%) Treated Sample-Untreated Sample,[2],1.35%
same,Early Apoptosis (%) Treated Sample-Untreated Sample,[2],1.8%
same,Late Apoptosis (%) Treated Sample-Untreated Sample,[2],30.9%
same,Apoptosis Quotient (%),[2],66.2%
same,Effect on P-gp ATPase activity,[3],milder stimulation
same,SI MRC-5/HepG2,[4],1.3
same,SI MRC-5/B16,B16 (skin melanoma),2.8
same,IC10,HaCaT cell line; [5],0.25 µM
